The values that follow come from PMC9029893 (International Journal of Molecular Sciences, 2022).

In data set [1] the test system is HUVEC cells. The conditions noted are these: cited from earlier work.
Data set [2] relates to HUVEC cells. As to the kind of experiment: HUVEC migration, wound-healing assay (JuLI Stage). It counts as cell-based, human. The method, then:
The effects of compounds 1–5 on HUVEC migration were determined using the JuLI™ Stage system (NanoEntek, Seoul, Korea): a real-time cell history recorder allowing for live cell imaging and analysis. The procedure for the migration experiments has been published elsewhere in more detail. Concisely, HUVECs were seeded at a density of 10,000 cells per well on 96-well plates and incubated at standard conditions for 24 h. Following this, a wound was made with a scratcher (NanoEntek, Seoul, Korea). The cells were then rinsed with 100 μL of fresh EGM2 medium, and treated with biguanides 1–5 at the concentrations of 0.3 and 1.0 mM. The cells were incubated and monitored continuously every 10 min for 36 h at 37 °C, 5% CO2. Analysis of obtained images of cell migration, and measurements of the width of the scratch area were performed using dedicated software (NanoEntek, Seoul, Korea). The results were presented as mean ± SD, n = 4–8. The CV for the method was estimated as 14.2–24.4%, depending on the time point (n = 8).

The test system of data set [3] is AoSMC cells. The note with it: cited from earlier work.
The test system of data set [4] is tissue plasminogen activator (t-PA) release from HUVEC. The conditions noted are these: cited from earlier work.
Data set [5] deals with HUVEC cells. The conditions noted are these: 0.006–1.5 mM; cited from earlier work.
Data set [6] concerns clot formation and fibrinolysis in human citrate plasma. The note with it: over the entire concentration range; cited from earlier work.
Data set [7] concerns HUVEC cells. Description: Glucose utilization assay (2-NBDG uptake). It counts as cell-based, human. The conditions noted are these: 24 h, then insulin and 2-NBDG. As to the method: HUVEC were seeded at a density of 20,000 cells per well in 48-well plates, and were cultured in standard conditions for 24 h (medium EGM-2; volume 0.2 mL). Following this, compounds 1–8 were added at concentrations of 0.1 and 0.3 mM, and the HUVECs were incubated for another 24 h. Cells treated with ᴅ-glucose (final concentration in a sample 0.1 mM) were used as positive controls. On the following day, the cells were rinsed with PBS (Biomed Lublin, Lublin, Poland) and cultured for two hours in glucose-free DMEM medium supplemented with 1% BSA (bovine serum albumin, Sigma, St. Louis, MO, USA). Then, the cells were co-treated with insulin (final concentration 0.0001 mM) for 30 min. Afterwards, the medium was discarded and the cells were treated with 2-NBDG (final concentration 0.05 mM) for 30 min, followed by removal of the solutions of each well. The cells were washed twice with 100 µL PBS, and lysed using 1% Triton X-100 solution in PBS. The fluorescence was recorded using a microplate reader (Biotek, Instruments, Winooski, VT, USA) at 480/530 nm.
The concentration of intracellular 2-NBDG was calculated using a calibration curve obtained using 2-NBDG at concentrations ranging from 0.0001 to 0.025 mM in lysis buffer. The results are presented as mean ± SD, n = 4–6. The coefficient of variation for the assay was calculated (CV = 2.2%, n = 8).

The test system of data set [8] is AoSMC cells. As to the kind of experiment: WST-1 cell viability assay, AoSMC. The note with it: Homo sapiens, 24 h, read-out: Viability-IC50, AoSMC cells.
Description: (§1) HUVEC and AoSMC viability were tested using the WST-1 cell viability assay (Takara Bio Europe, Saint-Germain-en-Laye, France). […] Briefly, HUVEC and AoSMC were seeded at densities of 7500 and 5000 cells per well on 96-well plates. The cells were cultivated for up to 24 h to achieve 70% confluency, and subsequently treated with tested compounds diluted in medium (1 + 9; v = 100 μL) or pure medium (control). The plates were incubated at 37 °C (5% CO2) for the next 24 h. Then, the cells were rinsed with 100 μL culture medium, and WST-1 reagent diluted in medium (100 μL) was added; the plates were then incubated again (37 °C, 5% CO2) for another 90 min. The absorbance was measured at 450 nm (iMARK, Bio-Rad, Hercules, CA, USA). The experiments were performed in multiplicate (n = 8) and the results were presented as mean ± SD. The cell viability was expressed as a percentage of the control samples, which constituted 100% viability. […] The variability coefficient of the method was estimated (CV(HUVEC) = 8.94%, n = 8; CV(AoSMC) = 5.84%, n = 10).
Data set [9] deals with HUVEC cells. As to the kind of experiment: HUVEC integrity in RTCA-DP system (normalized cell index). The data set is classed as cell-based, human. As to the method:
The effects of sulfonamides 1–8 on the integrity and barrier properties of HUVEC were examined in real-time using a cell electric impedance monitoring system (Real-Time Cell Analyzer; Roche & ACEA Biosciences, Santa Clara, CA, USA), which is based on tracking electrical impedance signals. Any changes in cell status, adhesion, and morphology are expressed by parameter Cell Index (CI). The experimental protocol has been described previously. Briefly, the cells were seeded at a density of 15,000 cells per well on E-16 plates (Roche & ACEA Biosciences, Santa Clara, CA, USA), and cultured until the cells achieved plateau phase. Then, the medium was discarded from each well, and the solutions of the test compounds dissolved in cell culturing medium (100 μL) or pure medium (100 μL, control) were added. The measurements were then carried out for 48 h. The results are presented as mean ± SD of ‘normalized cell index’ (nCI), which is calculated by the division of a CI value at a certain time point by the CI value at a reference time point. The experiments were conducted in multiplicate (n = 4–6). The method was validated and the coefficient of variability (CV) was calculated as 9.17%–15.2%, depending on the measured time point (n = 6).

In data set [10] the test system is HUVEC cells. As to the kind of experiment: WST-1 cell viability assay, HUVEC. The conditions noted are these: Homo sapiens, HUVEC, 24 h, read-out: Viability-IC50, HUVEC cells. (In general: Formazan colour is commonly taken as a measure of viable cells.)
Description: as §1

As for `CN(C)C(=N)N=C(N)N` [Metformin, dimethyl biguanide, reference compound], the “effect on viability and morphology of HUVEC cells” value with HUVEC cells [1] is reported as “not affect”. Also, the wound width in the data set on HUVEC cells [2] (0.3 mM, 6 hours) was found to be 570.1 ± 119.9 µm; in the data set with HUVEC cells [2] (0.3 mM, 12 hours), 467.8 ± 106.5 µm; in the data set with HUVEC cells [2] (0.3 mM, 18 hours) it was 412.1 ± 121.8 µm; with HUVEC cells [2] (0.3 mM, 24 hours), 405.0 ± 120.7 µm; in the data set with HUVEC cells [2] (0.3 mM, Start), 728.6 ± 62.5 µm; in the data set on HUVEC cells [2] (1.0 mM, 6 hours) it was 565.4 ± 31.5 µm. The wound width came out at 495.7 ± 20.0 µm in the data set with HUVEC cells [2] (1.0 mM, 12 hours); 482.7 ± 10.0 µm in the data set on HUVEC cells [2] (1.0 mM, 18 hours); 419.8 ± 42.3 µm in the data set on HUVEC cells [2] (1.0 mM, 24 hours); 670.4 ± 29.2 µm in the data set with HUVEC cells [2] (1.0 mM, Start). The “effect on viability and morphology of AoSMC cells” value in the data set with AoSMC cells [3] was “not affect”. Further, the “effect on t-PA release” value in data set [4] is on record as “significantly elevate”. In addition, in the data set with HUVEC cells [5], the “effect on integrity and adherence of HUVEC cells” value is on record as “not found to affect”. Further, the “effect on overall potential of clot formation and fibrinolysis (CLAUC)” value in data set [6] is “did not affect”. In addition, the entries for the “Glucose uptake (intracellular 2-NBDG)” value in the data set with HUVEC cells [7] (0.1 mM) and in the data set with HUVEC cells [7] (0.3 mM) were 0.0146 ± 0.0009 mM and 0.0165 ± 0.0006 mM, respectively.

For `CN(C)C(=N)N=C(N)NS(=O)(=O)c1ccc(C#N)cc1` [Compound 8], the IC50 – broadly, the concentration needed to halve the response being measured – stood at 1.57 ± 0.14 mM in the data set on AoSMC cells [8] and 791 ± 130 µM in the data set with HUVEC cells [10]. Besides, the “normalized Cell Index (nCI)” value is recorded as 0.312 ± 0.087 in the data set with HUVEC cells [9] (0.3 mM, 3 hours); 0.461 ± 0.015 in the data set on HUVEC cells [9] (0.3 mM, 6 hours); 0.416 ± 0.062 in the data set on HUVEC cells [9] (0.3 mM, 12 hours); 0.321 ± 0.038 in the data set on HUVEC cells [9] (0.3 mM, 24 hours); 0.198 ± 0.055 in the data set on HUVEC cells [9] (0.3 mM, 36 hours); 0.006 ± 0.004 in the data set on HUVEC cells [9] (1.0 mM, 3 hours). For the same molecule, the “normalized Cell Index (nCI)” value in the data set with HUVEC cells [9] (1.0 mM, 6 hours) is reported as 0.029 ± 0.006; in the data set with HUVEC cells [9] (1.0 mM, 12 hours), 0.021 ± 0.004; in the data set with HUVEC cells [9] (1.0 mM, 24 hours) it was 0.001 ± 0.001; in the data set with HUVEC cells [9] (1.0 mM, 36 hours) it was 0.001 ± 0.001. The “Glucose uptake (intracellular 2-NBDG)” value in the data set on HUVEC cells [7] (0.1 mM) is given as 0.0131 ± 0.0009 mM; in the data set with HUVEC cells [7] (0.3 mM), 0.0138 ± 0.0015 mM.

With `CN(C)C(=N)N=C(N)NS(=O)(=O)c1cccc(C#N)c1` [Compound 7], the IC50 in the data set on AoSMC cells [8] is 1.89 ± 0.16 mM; in the data set on HUVEC cells [10] it was 304 ± 120 µM. Besides, the “normalized Cell Index (nCI)” value in the data set on HUVEC cells [9] (0.3 mM, 3 hours) was found to be 0.283 ± 0.050; in the data set with HUVEC cells [9] (0.3 mM, 6 hours) it was 0.367 ± 0.027; in the data set with HUVEC cells [9] (0.3 mM, 12 hours), 0.333 ± 0.030; in the data set with HUVEC cells [9] (0.3 mM, 24 hours), 0.255 ± 0.26; in the data set on HUVEC cells [9] (0.3 mM, 36 hours), 0.094 ± 0.014; in the data set on HUVEC cells [9] (1.0 mM, 3 hours), 0.013 ± 0.004. The “normalized Cell Index (nCI)” value with HUVEC cells [9] (1.0 mM, 6 hours) amounted to 0.018 ± 0.001; with HUVEC cells [9] (1.0 mM, 12 hours) it was 0.020 ± 0.001; in the data set on HUVEC cells [9] (1.0 mM, 24 hours), 0.016 ± 0.002; in the data set with HUVEC cells [9] (1.0 mM, 36 hours) it was 0.013 ± 0.003. In addition, the “Glucose uptake (intracellular 2-NBDG)” value in the data set with HUVEC cells [7] (0.1 mM) is reported as 0.0131 ± 0.0013 mM; in the data set on HUVEC cells [7] (0.3 mM) it was 0.0139 ± 0.001 mM.

Take `CN(C)C(=N)N=C(N)NS(=O)(=O)c1ccccc1C#N` [Compound 6]: the figures for the IC50 in the data set with AoSMC cells [8] and in the data set on HUVEC cells [10] were 1.68 ± 0.21 mM and 461 ± 130 µM, respectively. Further, the “normalized Cell Index (nCI)” value in the data set on HUVEC cells [9] (0.3 mM, 3 hours) is 0.317 ± 0.050; in the data set on HUVEC cells [9] (0.3 mM, 6 hours), 0.424 ± 0.053; in the data set on HUVEC cells [9] (0.3 mM, 12 hours) it was 0.388 ± 0.07; with HUVEC cells [9] (0.3 mM, 24 hours), 0.280 ± 0.018; in the data set with HUVEC cells [9] (0.3 mM, 36 hours), 0.111 ± 0.026; in the data set with HUVEC cells [9] (1.0 mM, 3 hours), 0.010 ± 0.003. Besides, the “normalized Cell Index (nCI)” value in the data set on HUVEC cells [9] (1.0 mM, 6 hours) was 0.016 ± 0.005; with HUVEC cells [9] (1.0 mM, 12 hours), 0.019 ± 0.005; with HUVEC cells [9] (1.0 mM, 24 hours), 0.013 ± 0.003; in the data set with HUVEC cells [9] (1.0 mM, 36 hours), 0.009 ± 0.003. Also, the “Glucose uptake (intracellular 2-NBDG)” value in the data set with HUVEC cells [7] (0.1 mM) is 0.0128 ± 0.0007 mM; in the data set with HUVEC cells [7] (0.3 mM) it was 0.0129 ± 0.0007 mM.

Turning to `OC[C@H]1OC(O)[C@H](O)[C@@H](O)[C@@H]1O` (stereo partly drawn) [D-glucose, reference compound], in the data set with HUVEC cells [7] (0.1 mM), the “Glucose uptake (intracellular 2-NBDG)” value stood at 0.0014 ± 0.0001 mM.
